Data published in patent US20150159115A1, “PURIFICATION OF DPA ENRICHED OIL” (Omega Protein Corporation, priority 2013, published 2015).
“Also recorded” adds a separate entry of the source. Like-named read-outs stand apart in the source and are kept apart here.

Tests used:
[1] = tested on: THP-1 cells; assay: Cytokine (TNF-α, MCP-1, IL-6) release by LPS-stimulated THP-1 macrophages after fatty acid incubation; assay type: cell-based; conditions: for Release of cytokines (TNF-α, MCP-1, IL-6) by THP-1 macrophages compared to control macrophages: fatty acid 50 and 100 μM 24 h, then LPS 24 h; for Release of cytokines by THP-1 macrophages at increasing fatty acid concentration: highest 100 μM
Protocol: (§1) THP-1 cells were maintained in RPMI 1640+2 mM L-Glutamine, 10 mM HEPES, 1 mM sodium pyruvate, 4500 mg/L glucose, and 1500 mg/L sodium bicarbonate; supplemented with 3.5 μL/L of 2-mercaptoethanol and 10% fetal bovine serum (FBS). Cell line was maintained in 75 cm^2 filtered cap flasks in a 37° C. incubator with 5% CO2. THP-1 cells were seeded in 24 well plates at 5×10^5 cells/mL using 600 μL/well and allowed to differentiate into macrophages (MΦ) for 72 h with phorbol 12-myristate 13-acetate (PMA) at a final concentration of 50 ng/mL.
Experiment 1: Prior to incubation with individual fatty acids, the cells were starved for 8 h in a 2% lipo-free FBS RPMI medium. Individual fatty acids were added in duplicate into the 24 well plate at two concentrations, 50 μM and 100 μM. Every assay was cultured in three runs with duplicates in each run pooled. After incubation for 24 h with fatty acids the MΦ were scraped off the plates and fatty acids were isolated as described in the ‘Animal Tests’ portion of this Example. The fatty acid profiles of the MΦ were determined as previously described (Wang, et al., 2010, Clin. Nutr., DOI: 10.1016/j.clnu.2013.04.009).
(§2) Experiment 2: Previously differentiated MΦ were incubated with fatty acids as described in ‘Experiment 1’ for 24 hours. At the 24 h time point the cells were then stimulated with lipopolysaccharide from E. coli 0111:B4 for another 24 hours. The plates were centrifuged at 1200×g for 5 minutes and supernatant was then collected and analyzed for cytokines. The MΦ were scraped off the plates and fatty acids were isolated as described in the ‘Animal Portion’. The fatty acid profiles of the MΦ were determined as previously described (Wang, et al., 2010, Clin. Nutr., DOI: 10.1016/j.clnu.2013.04.009).
A linear mixed effects model was used in R, lme in the nlme package, for estimating treatment effects on cytokine production in LPS stimulated THP-1 cells. The fixed effects fit were treatment, FA concentration, and when significant LPS concentration was fit as a covariate, the plate cells were cultured on nested within run was fit as a random effect. Least squares means were analyzed as outlined above and pairwise comparisons were made between treatments for FA concentration, or where significant LPS concentration.
The objective of this study was to determine if docosapentaenoic acid n-3 (DPAn3) enrichment of macrophages (MΦ) changed their inflammatory response relative to saturated (S), mono-unsaturated (MU), and other poly-unsaturated (PU) fatty acids (FA). Differentiated THP-1 cells were incubated with one of 11 FA (50 and 100 μM) of varying degrees of unsaturation or no FA for 24 h prior to 24 h of stimulation with lipopolysaccharide from E. coli. Fatty acids were collected from MΦ without stimulation to determine the fatty acid profiles. Media was collected from MΦ post-stimulation and probed for prostaglandin E2, and cytokines, including tumor necrosis factor-α, monocyte chemoattractant protein-1, and interleukin-6. Prostaglandin E2 production was greater (P<0.05) for AA than all other FA, and omega-3 PUFA decreased (P<0.01) PGE2 compared to n6 PUFA and all other FA.

[2] = tested on: THP-1 cells; assay: Prostaglandin E2 production by LPS-stimulated THP-1 macrophages after fatty acid incubation; assay type: cell-based; conditions: fatty acid 50 and 100 μM 24 h, then LPS 24 h
Protocol: as §1, §2
The objective of this study was to determine if docosapentaenoic acid n-3 (DPAn3) enrichment of macrophages (MΦ) changed their inflammatory response relative to saturated (S), mono-unsaturated (MU), and other poly-unsaturated (PU) fatty acids (FA). […]

[3] = tested on: murine peritoneal macrophages; conditions: cited from earlier work
[4] = tested on: LDLr−/− mice; assay: TNF-α concentration in adipose tissue of mice fed different omega-3 products; conditions: mouse, in vivo
Excerpt: (§3) 48 male LDLr−/− mice (8-10 weeks of age, ˜20 g) were obtained from Jackson Laboratories (stock #2207) and allowed to acclimate to the cages, room, and feeding design for 12 days. After the acclimation period mice were weighed and randomly assigned to one of six treatments. Mice were fed an isolipid (20% total fatty acids w/w), isonitrogenous, and 0.2% cholesterol (w/w) diet, which is considered atherogenic (Ain76, 58TQ TestDiet®) as a base diet. This base diet was formulated to meet or exceed all nutrient and energy requirements for a growing mouse. The treatments were added to the base diet (0.76% w/w of the total diet) and was made once at the beginning of the study, separated into weekly aliquots, stored at −80° C., allowed to thaw at 4° C. for 2 days prior to feeding, and stored at 4° C. until fed. A sample from each weekly aliquot was collected, composited, and archived for fatty acid analysis at a later date. The treatments were as follows: (1) Negative control diet, 3.5% of the total fatty acids were replaced with milk fat (the only source of fat in the base diet), (2) 3.5% of the total fatty acids were replaced with purified ethyl esters of DHA, (3) 3.5% of the total fatty acids were replaced with purified ethyl esters of DPAn3, (4) 3.5% of the total fatty acids were replaced with purified ethyl esters of EPA, (5) 3.5% of the total fatty acids were replaced with omega-3 fatty acids from Lovaza® (GlaxoSmithKline), and (6) 3.5% of the total fatty acids were replaced with omega-3 fatty acids from ΩmegaActiv® DPA 5000 (Omega Protein Inc., Houston, Tex.; Table 1).
TNF-α concentration in adipose tissue of mice fed with different omega-3 products

[5] = tested on: LDLr−/− mice; assay: Fluorescence intensity of inflammatory markers in brain microvessel (cerebrovasculature) of mice; assay type: in vivo, mouse; conditions: relative to control = 1.00
Excerpt: as §3
(§4) The objectives of these studies were to compare the effects of replacing 3.5% of the total fatty acids with DPAn3, EPA, DHA, and commercial combinations of EPA, DPAn3, and DHA on serum lipid profiles, brain inflammation, and the development of atherosclerosis in LDLr−/− mice fed an atherogenic diet for 20 weeks and [2] to determine if DPAn3 enrichment of macrophages (50 and 100 μM) changed their lipopolysaccharide stimulated inflammatory profile relative to saturated (S), mono-unsaturated (MU), and other omega-6 and omega-3 poly-unsaturated (PU) fatty acids (FA).
Flourescence intensity (relative) of brain microvessel

[6] = tested on: LDLr−/− mice; assay: Fluorescence intensity of inflammatory markers in brain hippocampus of mice; assay type: in vivo, mouse; conditions: relative to control = 1
Excerpt: as §3, §4

Row | SMILES | Release of cytokines (TNF-α, MCP-1, IL-6) by THP-1 macrophages compared to control macrophages [1] | Release of cytokines by THP-1 macrophages at increasing fatty acid concentration [1] | TNF-α Concentration in adipose tissue [4] [pg/μg protein] | IL-8 fluorescence intensity (relative) of brain microvessel [5] | MCP-1 fluorescence intensity (relative) of brain microvessel [5] | IL-8 fluorescence intensity (relative) of brain hippocampus [6] | TIMP2 fluorescence intensity (relative) of brain hippocampus [6] | TNF-α fluorescence intensity (relative) of brain hippocampus [6] | further results
1 | CCCCC/C=C\C/C=C\C/C=C\C/C=C\CCCC(=O)O [AA, Arachidonic acid] | most potent inhibitor of cytokine release followed by AA | – | – | – | – | – | – | – | Release of cytokines (TNF-α, MCP-1, IL-6) by THP-1 macrophages compared to control macrophages ([1]; listed as Arachidonic acid): decreased cytokine expression, but not to the extent of EPA supplementation; Prostaglandin E2 production by THP-1 macrophages [2]: greater; also recorded: increased greatly; TNF-α production ([3]; AA at 2-5 μM, increasing LPS concentrations): completely inhibited; TNF-α production ([3]; AA at concentrations as low as 1 μM): decreased TNF-α production
2 | CCCCCCCCCCCCCCCC(=O)O [C16:0] | did not change the amount of cytokines released | did not change, or increased the amount of cytokines released | – | – | – | – | – | – | –
3 | CCCCCCCCCCCCCCCCCC(=O)O [C18:0] | did not change the amount of cytokines released | did not change, or increased the amount of cytokines released | – | – | – | – | – | – | –
4 | CC/C=C\C/C=C\C/C=C\C/C=C\C/C=C\C/C=C\CCC(=O)O [DHA, docosahexaenoic acid] | – | – | 0.82 | 0.86 | 0.93 | 0.46 | 0.23 | 0.29 | –
5 | CC/C=C\C/C=C\C/C=C\C/C=C\C/C=C\CCCCCC(=O)O [DPA, docosapentaenoic acid] | – | – | 0.41 | 0.96 | 0.92 | 0.70 | 0.17 | 0.28 | –
6 | CC/C=C\C/C=C\C/C=C\C/C=C\C/C=C\CCCC(=O)O [EPA, eicosapentaenoic acid] | – | – | 0.58 | 0.93 | 0.96 | 0.72 | 0.63 | 0.31 | –
7 | CCCCCCCC/C=C\CCCCCCCC(=O)O [oleic acid] | did not change the amount of cytokines released; also recorded: did not change inflammatory cytokine release | did not change, or increased the amount of cytokines released | – | – | – | – | – | – | –
